Measurements: patent US20190077724A1, “COMPOSITIONS AND METHODS FOR CROP NUTRITION” (AdvanSix Resins & Chemicals LLC, priority 2017, published 2019)

Assay: NBPT comparative solubility in solvents
Assay type: physicochemical
Settings: room temperature; for maximum weight percentage of NBPT dissolved in the solvent: vials with 20, 30, 40 and 50 wt. % NBPT
Protocol: The solubility of the N-(n-butyl) thiophosphoric triamide (NBPT) was determined for thirteen solvents. Three of the solvents were caprolactam-derived solvents in accordance with compositions of this disclosure. The remaining ten were comparative solvents. The NBPT was 98% (HPLC) obtained from AK Scientific, Inc., Union City, California. The N-methyl-2-pyrrolidone was at least 99% pure and obtained from Sigma Aldrich of St. Louis, Missouri. The N-butyl-2-pyrrolidone was at least 98% pure and obtained from TCI America of Portland, Oregon. The methyl-5-(dimethylamino)-2-methyl-5-oxopentanoate/propylene glycol was 70-90% pure and obtained from Solvay S. A. of Princeton, N.J.
The solubility of NBPT was evaluated for each solvent by preparing four, 2 ml vials containing 20 wt. %, 30 wt. %, 40 wt. % and 50 wt. % of NBPT. To prepare the 20 wt. % vial, 0.040 g of NBPT was added to 0.160 ml of solvent. To prepare the 30 wt. % vial, 0.060 g of NBPT was added to 0.140 ml of solvent. To prepare the 40 wt. % vial, […] of NBPT was added to 0.120 ml of solvent. To prepare the 50 wt. % vial, 0.100 g of NBPT was added to 0.100 ml of solvent. The vials were capped and swirled at room temperature until no change in solubility was observed.
Solvents 1-3 are in accordance with compositions of the present disclosure. Solvents 4-13 are comparative solvents.

SMILES	maximum weight percentage of NBPT dissolved in the solvent	NBPT dissolving performance compared with NMP
CCN1CCCCCC1=O [N-ethylcaprolactam]	50%	performed as well as NMP
CCCCN1CCCCCC1=O [N-butylcaprolactam]	40%	performed nearly as well as NMP
COC1CCCCC1 [cyclohexyl methyl ether]	<20%	
O=C1CCCCC1 [cyclohexanone]	40%	
CN1CCCC1=O [N-methyl-2-pyrrolidone]	50%	
N#CCCN1CCCCCC1=O [N-(2-cyanoethyl)caprolactam]	<20%	
CN1CCCCCC1=O [N-methylcaprolactam]	50%	performed as well as NMP

Second part, the compound after the results:

maximum weight percentage of NBPT dissolved in the solvent	NBPT dissolving performance compared with NMP	SMILES
<20%		CCCC(=O)OC1CCCCC1 [cyclohexyl butyrate]
40%		COC(=O)CCCCC(=O)N(C)C [N,N-dimethyladipamide methyl ester]
<20%		CC(=O)OC1CCCCC1 [cyclohexyl acetate]
30%		COC(=O)C(C)CCC(=O)N(C)C (stereo not shown) [methyl-5-(dimethylamino)-2-methyl-5-oxopentanoate]
20%		CCCCCCCCCC(=O)N(C)C [N,N-dimethyldecanamide]
50%		CCCCN1CCCC1=O [N-butyl-2-pyrrolidone]
